# Measured values as given in ChEMBL document CHEMBL4118287, “Polysaccharide deacetylases serve as new targets for the design of inhibitors against Bacillus anthracis and Bacillus cereus” (Bioorg Med Chem, 2018).
# Active and inactive are the calls of the source. The rule behind the calls is not given here.
# T1: Peptidoglycan-N-acetylglucosamine deacetylase BC_1960 (Bacillus cereus (strain ATCC 14579 / DSM 31 / JCM 2152 / NBRC 15305 /NCIMB 9373 / NRRL B-3711), UniProt Q81EK9)
# T1 sequence (Q81EK9 whole entry): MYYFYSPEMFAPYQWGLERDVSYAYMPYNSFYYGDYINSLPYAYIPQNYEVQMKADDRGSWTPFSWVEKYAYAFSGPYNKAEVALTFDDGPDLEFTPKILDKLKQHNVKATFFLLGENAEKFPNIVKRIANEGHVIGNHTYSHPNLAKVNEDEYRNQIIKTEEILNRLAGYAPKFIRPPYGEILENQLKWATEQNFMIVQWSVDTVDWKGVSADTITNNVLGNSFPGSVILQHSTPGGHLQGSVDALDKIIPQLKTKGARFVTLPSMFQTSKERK
# T2: Peptidoglycan-N-acetylglucosamine deacetylase BC_1974 (Bacillus cereus (strain ATCC 14579 / DSM 31 / JCM 2152 / NBRC 15305 /NCIMB 9373 / NRRL B-3711), UniProt Q81EJ6)
# T2 sequence (Q81EJ6 whole entry): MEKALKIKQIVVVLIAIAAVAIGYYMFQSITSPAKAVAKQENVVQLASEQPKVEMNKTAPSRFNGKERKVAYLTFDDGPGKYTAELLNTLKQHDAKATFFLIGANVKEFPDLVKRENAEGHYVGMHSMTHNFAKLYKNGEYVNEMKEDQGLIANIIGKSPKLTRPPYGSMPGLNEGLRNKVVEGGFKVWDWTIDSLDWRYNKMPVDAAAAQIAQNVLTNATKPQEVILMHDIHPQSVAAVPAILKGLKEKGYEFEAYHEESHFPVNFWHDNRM
# Legend:
# Bacillus anthracis [1] = assay: Inhibition of Bacillus anthracis 7702 BA1977 assessed as induction of lysozyme sensitivity at 10 to 50 uM incubated for 250 mins under shaking condition measured every 30 mins
# Bacillus anthracis [2] = assay: Bactericidal activity against Bacillus anthracis 7702 measured after 72 hrs in presence of lysozyme; type: functional; conditions: Bacillus anthracis, 7702, 72 h
# Bacillus cereus [3] = assay: Ratio of MBC to MIC for Bacillus cereus ATCC 14579 measured after 16 hrs in absence of lysozyme; type: functional
# Bacillus anthracis [4] = assay: Bactericidal activity against Bacillus anthracis 7702 measured after 72 hrs in absence of lysozyme; type: functional; conditions: Bacillus anthracis, 7702, 72 h
# [5] = biological target: T1, Peptidoglycan-N-acetylglucosamine deacetylase BC_1960; assay: Competitive inhibition of recombinant Bacillus cereus BC1960 expressed in Escherichia coli using varying levels of GlcNAc5 as substrate measured after 10 mins in presence of fluorescamine by Line-weaver burk plot analysis; conditions: read-out: Ki(app)
# Bacillus cereus [6] = assay: Antibacterial activity against Bacillus cereus ATCC 14579 measured after 16 hrs in absence of lysozyme; type: functional; conditions: ATCC 14579, 16 h
# Bacillus cereus [7] = assay: Antibacterial activity against Bacillus cereus ATCC 14579 assessed as production of longer chains of daughter cells at 40 ug/ml incubated 16 hrs under shaking condition by scanning electron microscopic analysis; type: functional, organism-based
# Bacillus cereus [8] = assay: Antibacterial activity against Bacillus cereus ATCC 14579 measured after 16 hrs in presence of lysozyme; type: functional; conditions: ATCC 14579, 16 h
# Bacillus anthracis [9] = assay: Inhibition of Bacillus anthracis 7702 BA1977 assessed as induction of lysozyme sensitivity at 50 uM incubated for 250 mins under shaking condition measured every 30 mins
# Bacillus anthracis [10] = assay: Ratio of MBC to MIC for Bacillus anthracis 7702 measured after 16 hrs in absence of lysozyme; type: functional
# [11] = biological target: T2, Peptidoglycan-N-acetylglucosamine deacetylase BC_1974; assay: Competitive inhibition of recombinant Bacillus cereus BC1974 expressed in Escherichia coli using varying levels of GlcNAc5 as substrate measured after 5 mins in presence of fluorescamine by Line-weaver burk plot analysis; conditions: read-out: Ki(app)
# Bacillus cereus [12] = assay: Bactericidal activity against Bacillus cereus ATCC 14579 measured after 72 hrs in presence of lysozyme; type: functional; conditions: ATCC 14579, 72 h
# Bacillus anthracis [13] = assay: Antibacterial activity against Bacillus anthracis 7702 measured after 16 hrs in absence of lysozyme; type: functional; conditions: Bacillus anthracis, 7702, 16 h
# Bacillus anthracis [14] = assay: Ratio of MBC to MIC for Bacillus anthracis 7702 measured after 16 hrs in presence of lysozyme; type: functional
# Bacillus cereus [15] = assay: Bactericidal activity against Bacillus cereus ATCC 14579 measured after 72 hrs in absence of lysozyme; type: functional; conditions: ATCC 14579, 72 h
# [16] = biological target: T1, Peptidoglycan-N-acetylglucosamine deacetylase BC_1960; assay: Inhibition of recombinant Bacillus cereus BC1960 expressed in Escherichia coli using GlcNAc5 as substrate measured after 10 mins by fluorescamine based fluorescence assay
# Bacillus cereus [17] = assay: Ratio of MBC to MIC for Bacillus cereus ATCC 14579 measured after 16 hrs in presence of lysozyme; type: functional
# [18] = biological target: T2, Peptidoglycan-N-acetylglucosamine deacetylase BC_1974; assay: Inhibition of recombinant Bacillus cereus BC1974 expressed in Escherichia coli using GlcNAc5 as substrate measured after 5 mins by fluorescamine based fluorescence assay
# Bacillus anthracis [19] = assay: Antibacterial activity against Bacillus anthracis 7702 measured after 16 hrs in presence of lysozyme; type: functional; conditions: Bacillus anthracis, 7702, 16 h
# [20] = compound: O=C(NO)c1ccc(-c2cccc3ccccc23)cc1; assay: Competitive inhibition of recombinant Bacillus cereus BC1974 expressed in Escherichia coli assessed as substrate Km at 40 uM using varying levels of GlcNAc5 as substrate measured after 5 mins in presence of fluorescamine by Line-weaver burk plot analysis
# [21] = compound: O=C(NO)c1ccc(-c2cccc3ccccc23)cc1; assay: Competitive inhibition of recombinant Bacillus cereus BC1974 expressed in Escherichia coli assessed as substrate Km at 20 uM using varying levels of GlcNAc5 as substrate measured after 5 mins in presence of fluorescamine by Line-weaver burk plot analysis
molecule,measurement,setting,value
O=C(NO)c1cccc2ccccc12,inhibition,Bacillus anthracis [1],inactive
O=C(NO)c1ccc(-c2cccc3ccccc23)cc1,MBC,Bacillus anthracis [2],8.23 µg/mL
same,Ratio,Bacillus cereus [3],<4
same,MBC,Bacillus anthracis [4],8.23 µg/mL
same,Ki,[5],66 µM
same,MIC,Bacillus cereus [6],6.58 µg/mL
same,Activity,Bacillus cereus [7],Active
same,MIC,Bacillus cereus [8],5.26 µg/mL
same,inhibition,Bacillus anthracis [9],Active
same,Ratio,Bacillus anthracis [10],<4
same,Ki,[11],8.7 µM
same,MBC,Bacillus cereus [12],8.23 µg/mL
same,MIC,Bacillus anthracis [13],7.89 µg/mL
same,Ratio,Bacillus anthracis [14],<4
same,MBC,Bacillus cereus [15],8.23 µg/mL
same,IC50,[16],132 µM
same,Ratio,Bacillus cereus [17],<4
same,IC50,[18],43.3 µM
same,MIC,Bacillus anthracis [19],6.58 µg/mL
O=C(NO)c1cccc(Oc2ccccc2)c1,inhibition,Bacillus anthracis [1],inactive
O=C(NO)c1cccc(-c2ccccc2)c1,inhibition,Bacillus anthracis [1],inactive
"Peptidoglycan-N-acetylglucosamine deacetylase BC_1974 (Bacillus cereus (strain ATCC 14579 / DSM 31 / JCM 2152 / NBRC 15305 /NCIMB 9373 / NRRL B-3711)), Q81EJ6 (protein) MEKALKIKQIVVVLIAIAAVAIGYYMFQSITSPAKAVAKQENVVQLASEQPKVEMNKTAPSRFNGKERKVAYLTFDDGPGKYTAELLNTLKQHDAKATFFLIGANVKEFPDLVKRENAEGHYVGMHSMTHNFAKLYKNGEYVNEMKEDQGLIANIIGKSPKLTRPPYGSMPGLNEGLRNKVVEGGFKVWDWTIDSLDWRYNKMPVDAAAAQIAQNVLTNATKPQEVILMHDIHPQSVAAVPAILKGLKEKGYEFEAYHEESHFPVNFWHDNRM",Km,[20],42 µM
same,Km,[21],22.8 µM
